Measurements taken from ChEMBL document CHEMBL1136299, “Adenosine-anchored triphosphate subsite probing: distinguishing between HER-2 and HER-4 tyrosine protein kinases” (Bioorg Med Chem Lett, 2003).
Activity calls are given as the source filed them. The rule behind the calls is not given here.

Legend:
[1] = molecular target: Receptor tyrosine-protein kinase erbB-2 (Homo sapiens) (UniProt P04626); assay: Ratio of HER-2 inhibition by diastereomers
[2] = molecular target: Receptor tyrosine-protein kinase erbB-4 (Homo sapiens) (UniProt Q15303); assay: Ratio of HER-4 inhibition by diastereomers (inactive)
[3] = molecular target: Receptor tyrosine-protein kinase erbB-4 (Homo sapiens) (UniProt Q15303); assay: Ratio of HER-4 inhibition by diastereomers

Sequence of Receptor tyrosine-protein kinase erbB-4 (Homo sapiens) (Q15303 whole entry): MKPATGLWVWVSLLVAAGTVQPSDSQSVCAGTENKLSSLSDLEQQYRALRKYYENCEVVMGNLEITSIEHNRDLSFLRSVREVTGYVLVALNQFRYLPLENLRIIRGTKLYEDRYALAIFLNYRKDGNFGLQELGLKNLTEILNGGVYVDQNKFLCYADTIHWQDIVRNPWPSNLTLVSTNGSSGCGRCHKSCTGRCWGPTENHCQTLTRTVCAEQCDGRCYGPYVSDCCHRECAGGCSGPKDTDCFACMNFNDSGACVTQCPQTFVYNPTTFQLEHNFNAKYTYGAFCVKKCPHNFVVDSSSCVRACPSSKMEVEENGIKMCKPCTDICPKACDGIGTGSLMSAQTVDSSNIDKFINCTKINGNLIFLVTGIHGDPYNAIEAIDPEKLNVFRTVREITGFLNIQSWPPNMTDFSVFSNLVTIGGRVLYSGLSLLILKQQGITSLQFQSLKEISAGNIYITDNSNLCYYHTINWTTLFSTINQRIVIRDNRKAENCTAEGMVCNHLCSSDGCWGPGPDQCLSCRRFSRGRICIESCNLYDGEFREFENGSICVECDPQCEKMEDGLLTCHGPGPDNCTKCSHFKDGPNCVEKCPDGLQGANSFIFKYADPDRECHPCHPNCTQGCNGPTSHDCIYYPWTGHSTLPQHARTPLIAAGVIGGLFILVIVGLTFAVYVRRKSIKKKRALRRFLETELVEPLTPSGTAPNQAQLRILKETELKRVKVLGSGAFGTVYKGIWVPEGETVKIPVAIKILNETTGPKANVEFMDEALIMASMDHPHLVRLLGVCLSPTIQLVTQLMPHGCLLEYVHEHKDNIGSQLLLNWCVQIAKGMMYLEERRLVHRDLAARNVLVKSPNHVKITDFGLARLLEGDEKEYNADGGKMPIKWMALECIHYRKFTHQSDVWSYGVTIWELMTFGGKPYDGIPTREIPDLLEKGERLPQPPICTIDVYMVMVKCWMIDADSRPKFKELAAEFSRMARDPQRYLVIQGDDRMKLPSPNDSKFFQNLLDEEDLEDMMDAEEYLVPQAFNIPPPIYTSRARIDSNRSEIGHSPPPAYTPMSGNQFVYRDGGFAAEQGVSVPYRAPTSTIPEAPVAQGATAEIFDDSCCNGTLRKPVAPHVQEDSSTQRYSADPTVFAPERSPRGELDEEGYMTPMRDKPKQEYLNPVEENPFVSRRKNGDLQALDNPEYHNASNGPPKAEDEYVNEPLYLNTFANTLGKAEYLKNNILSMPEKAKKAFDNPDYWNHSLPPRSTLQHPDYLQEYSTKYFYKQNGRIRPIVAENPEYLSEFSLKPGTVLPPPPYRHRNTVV
Sequence of Receptor tyrosine-protein kinase erbB-2 (Homo sapiens) (P04626 whole entry): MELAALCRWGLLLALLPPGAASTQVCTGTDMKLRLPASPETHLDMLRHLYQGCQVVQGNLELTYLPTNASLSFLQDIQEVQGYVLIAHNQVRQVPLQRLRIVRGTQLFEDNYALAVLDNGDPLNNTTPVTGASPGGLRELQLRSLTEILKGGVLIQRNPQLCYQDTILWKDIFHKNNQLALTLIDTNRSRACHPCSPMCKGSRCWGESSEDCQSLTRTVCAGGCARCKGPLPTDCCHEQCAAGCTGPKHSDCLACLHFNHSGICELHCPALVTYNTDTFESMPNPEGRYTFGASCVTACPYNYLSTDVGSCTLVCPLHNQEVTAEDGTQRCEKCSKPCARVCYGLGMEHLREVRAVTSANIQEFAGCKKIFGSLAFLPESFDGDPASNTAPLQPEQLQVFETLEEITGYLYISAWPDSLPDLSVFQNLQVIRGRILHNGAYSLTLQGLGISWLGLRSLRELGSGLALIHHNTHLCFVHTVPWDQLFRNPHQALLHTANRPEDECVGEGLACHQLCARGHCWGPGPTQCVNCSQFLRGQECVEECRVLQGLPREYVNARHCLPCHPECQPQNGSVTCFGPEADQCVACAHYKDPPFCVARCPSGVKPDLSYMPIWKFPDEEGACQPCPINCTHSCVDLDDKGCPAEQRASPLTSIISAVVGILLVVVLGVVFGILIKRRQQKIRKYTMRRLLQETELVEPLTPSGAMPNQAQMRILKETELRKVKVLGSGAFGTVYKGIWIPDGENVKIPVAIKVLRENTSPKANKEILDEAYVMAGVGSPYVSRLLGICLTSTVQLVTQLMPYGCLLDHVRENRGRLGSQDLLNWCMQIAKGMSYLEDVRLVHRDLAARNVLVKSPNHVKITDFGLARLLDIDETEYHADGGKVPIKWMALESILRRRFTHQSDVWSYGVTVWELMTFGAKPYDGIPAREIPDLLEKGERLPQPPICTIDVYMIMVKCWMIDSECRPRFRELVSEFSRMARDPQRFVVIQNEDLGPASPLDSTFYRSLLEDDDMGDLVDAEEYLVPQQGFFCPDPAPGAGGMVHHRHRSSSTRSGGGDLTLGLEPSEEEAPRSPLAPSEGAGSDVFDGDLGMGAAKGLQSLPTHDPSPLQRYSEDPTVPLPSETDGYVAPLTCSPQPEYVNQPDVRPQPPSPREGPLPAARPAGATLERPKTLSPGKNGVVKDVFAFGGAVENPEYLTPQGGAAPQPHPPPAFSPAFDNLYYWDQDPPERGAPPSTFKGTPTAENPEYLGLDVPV

| SMILES | Selectivity [1] | Selectivity [2] | Selectivity [3] |
| --- | --- | --- | --- |
| CCOC1CC2(C)OC1(C(=O)NC[C@H]1O[C@@H](n3cnc4c(N)ncnc43)[C@H](O)[C@@H]1O)C(=O)N2C (some centres not stated) | 9.1 | inactive | – |
| CCOC1CC2(C[C@H]3O[C@@H](n4cnc5c(N)ncnc54)[C@H](O)[C@@H]3O)OC1(C(=O)OC)C(=O)N2C (some centres not stated) | 34.4 | – | 1.6 |
| CN1C(=O)C2(C(N)=O)O[C@@]1(C)CC2OC(=O)NC[C@H]1O[C@@H](n2cnc3c(N)ncnc32)[C@H](O)[C@@H]1O.CN1CC2(C(N)=O)O[C@]1(C)C(=O)C2OC(=O)NC[C@H]1O[C@@H](n2cnc3c(N)ncnc32)[C@H](O)[C@@H]1O (some centres not stated) | 54.7 | – | 1.2 |

Continued, values first:

| Selectivity [1] | Selectivity [2] | Selectivity [3] | SMILES |
| --- | --- | --- | --- |
| 3.1 | inactive | – | CCOC1CC2(C[C@H]3O[C@@H](n4cnc5c(NC(=O)OCc6ccccc6)ncnc54)[C@H](O)[C@@H]3O)OC1(C(=O)OC)C(=O)N2C.CCOC1C[C@@]2(C[C@H]3O[C@@H](n4cnc5c(NC(=O)OCc6ccccc6)ncnc54)[C@H](O)[C@@H]3O)OC1(C(=O)OC)C(=O)N2C (some centres not stated) |
| 4.8 | – | 1.4 | CCOC1CC2OC1(C(=O)OC)C(=O)N2C[C@H]1O[C@@H](n2cnc3c(N)ncnc32)[C@H](O)[C@@H]1O.CCOC1C[C@@]2(C)OC1(C(=O)OC)C(=O)N2C[C@H]1O[C@@H](n2cnc3c(N)ncnc32)[C@H](O)[C@@H]1O (some centres not stated) |
| 1.7 | inactive | – | CCOC1CC2(C)OC1(C(=O)OC)C(=O)N2C[C@H]1O[C@@H](n2cnc3c(NC(=O)OCc4ccccc4)ncnc32)[C@H](O)[C@@H]1O.CCOC1C[C@@]2(C)OC1(C(=O)OC)C(=O)N2C[C@H]1O[C@@H](n2cnc3c(NC(=O)OCc4ccccc4)ncnc32)[C@H](O)[C@@H]1O (some centres not stated) |
